This assay has as its system Platynereis FLamide receptor. The assay is described as follows: Positive control of deorphanization assay, luminescence. Type of assay: cell-based. To be noted: 1 μM AKYFL-NH2. An excerpt: Fig 1 Identification of the Clytia MIHR. (A) Diagram of a Clytia gonad showing the different tissues used for RNA-seq and GPCR expression comparisons. A total of 536 putative GPCRs identified in Clytia mixed-stages transcriptome were assigned to the three main GPCR classes (A, B, C) or “other” based on Pfam signatures. The 16 top candidate MIH GPCRs were selected based on oocyte enrichment, relatedness to known bilaterian class-A neuropeptide GPCRs, and Pfam information. (B) Luminescence response of CHO-K1 cells expressing the putative Clytia MIH GPCR treated with neuropeptide mixes lacking MIH activity (purple bars), MIH tetrapeptides identified from C. hemisphaerica (blue bars) or Cladonema radiatum (green bars), or related penta- and tripeptides previously shown to be ineffective in triggering oocyte maturation in vivo (red bars). Empty pcDNA3.1 vector was used as negative control and Platynereis FLamide and its receptor as a positive control (gray bars). Peptide concentrations all 1 μM. Absolute units of luminescence were normalized using the positive control; data are shown as mean ± standard error of the mean (n = 3). […] Luminescence values were normalized relative to the maximum of fitted dose–response curves and are shown as mean ± standard error of the mean (n = 3). Half maximal effective concentration (EC50) values were calculated as means of 3 independent experiments. […]

For “AKYFL-NH2 [(+) Ctrl, ligand for Platynereis FLamide receptor]”, the “Normalised response (to positive control), mean” value was 1.
